Measured values from PMC12774438, “CBL ubiquitin ligase targets translation as a degrader E3” (Chemical Science, 2025).
Where a SMILES comes first, the peptide text is derived from it.

Biological target: T1, His-eIF4E (Homo sapiens, UniProt P06730)
T1 construct: made in house; host or cells: E. coli BL21(DE3) Gold
Assay: SPR binary binding of peptides to immobilised His-eIF4E
Settings: 25°C, ligand His-eIF4E amine-coupled to CM5 chip, steady-state affinity, analyte 0.005859-0.75 µM, n = 3, mean ± SD
Protocol: Supplementary Figure 4. Related to Table 2
A. Sensorgrams (left) and binding curves (right) showing a three-fold dilution series […]
over immobilised eIF4E. […]
(1 picture or pasted object on this page, not shown here) […]
Data were analysed by […] affinity analysis using Cytiva Biacore TM Insight Evaluation Software. Sensorgrams for figures were made using GraphPad Prism 9.5.1.
Studying the interactions between eIF4E and eIFTerminator1-4
His-eIF4E protein was immobilised on Cytiva’s sensor chip CM5 using amine-coupling. The chip was docked and primed in running buffer (50 mM HEPES pH 7.5, 100 mM NaCl, 1 mM TCEP, 0.05% Tween20). Cytiva’s amine-coupling kit was used to capture the ligand. Briefly, 0.4 M EDC and 0.1 M NHS from the kit were mixed 50:50 and injected to activate the chip surface for 300 s at 10 μL/min. His-eIF4E was prepared for amine coupling as described previously (15). After achieving a capture level of approximately 120 RU, the remaining binding sites were blocked with ethanolamine hydrochloride-NaOH (pH 8.5) from the kit for 420 s at a flow rate of 10 μL/min. Reference surfaces were prepared in duplicates […]
Multi-cycle experiments were performed to gain steady-state binding affinity of eIFTerminator1-4 to His-eIF4E. At a flow rate of 30 μL/min, 20 startups with a 30 s contact time and a 30 s dissociation time were done prior to sample injection. An 8-point, 1 in 2 dilution series of eIFTerminator1-4 or eIF4G1-D5S peptide was injected (0.005859 – 0.75 μM) with a 100 s contact time and a 250 s dissociation time at a flow rate of 30 μL/min. The peptides were dissolved in running buffer and filtered using Coster Spin-X 0.22 μM centrifuge tube filters as described above. […]

T1 sequence (P06730 whole entry): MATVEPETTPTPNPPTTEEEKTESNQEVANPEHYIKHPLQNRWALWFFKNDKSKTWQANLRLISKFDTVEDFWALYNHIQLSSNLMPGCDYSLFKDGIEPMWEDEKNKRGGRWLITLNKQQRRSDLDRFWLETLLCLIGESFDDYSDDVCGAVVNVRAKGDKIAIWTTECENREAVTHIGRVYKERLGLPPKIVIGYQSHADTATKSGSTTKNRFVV

| Molecule | Kd [nM] |
| --- | --- |
| CC[C@H](C)[C@H](NC(=O)[C@H](Cc1c[nH]c2ccccc12)NC(=O)[C@H](CO)NC(=O)[C@H](CC(=O)O)NC(=O)[C@H](CCSC)NC(=O)[C@H](CCC(=O)O)NC(=O)[C@H](CCC(=O)O)NC(=O)[C@@H](NC(=O)[C@@H](NC(=O)[C@H](CCSC)NC(=O)CNC(=O)[C@H](CO)NC(=O)CNC(=O)CNC(=O)[C@H](CO)NC(=O)CNC(=O)CNC(=O)[C@H](CO)NC(=O)CNC(=O)CNC(=O)[C@H](Cc1ccccc1)NC(=O)CNC(=O)[C@H](CC(C)C)NC(=O)[C@H](CC(C)C)NC(=O)[C@H](Cc1ccccc1)NC(=O)[C@H](CCC(=O)O)NC(=O)[C@H](CCCNC(=N)N)NC(=O)[C@H](CO)NC(=O)[C@H](Cc1ccc(O)cc1)NC(=O)[C@H](CCCNC(=N)N)NC(=O)[C@H](CCCCN)NC(=O)[C@@H](N)CCCCN)[C@@H](C)O)C(C)C)C(=O)N[C@@H](CCCCN)C(=O)N[C@@H](CO)C(=O)N[C@@H](Cc1c[nH]c2ccccc12)C(=O)N[C@@H](CC(=O)O)C(=O)N[C@@H](CCC(N)=O)C(=O)N[C@@H](CCCNC(=N)N)C(N)=O [eIFTerminator3] (H-KKRYSREFLLGFGGSGGSGGSGMTVEEMDSWIKSWDQR-NH2) | 39.5 ± 3.4 |
| CC(C)C[C@H](NC(=O)[C@H](CC(C)C)NC(=O)[C@H](Cc1ccccc1)NC(=O)[C@H](CCC(=O)O)NC(=O)[C@H](CCCNC(=N)N)NC(=O)[C@H](CO)NC(=O)[C@H](Cc1ccc(O)cc1)NC(=O)[C@H](CCCNC(=N)N)NC(=O)[C@H](CCCCN)NC(=O)[C@@H](N)CCCCN)C(=O)NCC(=O)N[C@@H](Cc1ccccc1)C(N)=O [eIF4G1-D5S] (H-KKRYSREFLLGF-NH2) | 38.9 ± 6.5 |
| CC[C@H](C)[C@H](NC(=O)[C@H](Cc1c[nH]c2ccccc12)NC(=O)[C@H](CO)NC(=O)[C@H](CC(=O)O)NC(=O)[C@H](CCSC)NC(=O)[C@H](CCC(=O)O)NC(=O)[C@H](CCC(=O)O)NC(=O)[C@@H](NC(=O)[C@@H](NC(=O)[C@H](CCSC)NC(=O)CNC(=O)[C@H](CO)NC(=O)CNC(=O)CNC(=O)[C@H](Cc1ccccc1)NC(=O)CNC(=O)[C@H](CC(C)C)NC(=O)[C@H](CC(C)C)NC(=O)[C@H](Cc1ccccc1)NC(=O)[C@H](CCC(=O)O)NC(=O)[C@H](CCCNC(=N)N)NC(=O)[C@H](CO)NC(=O)[C@H](Cc1ccc(O)cc1)NC(=O)[C@H](CCCNC(=N)N)NC(=O)[C@H](CCCCN)NC(=O)[C@@H](N)CCCCN)[C@@H](C)O)C(C)C)C(=O)N[C@@H](CCCCN)C(=O)N[C@@H](CO)C(=O)N[C@@H](Cc1c[nH]c2ccccc12)C(=O)N[C@@H](CC(=O)O)C(=O)N[C@@H](CCC(N)=O)C(=O)N[C@@H](CCCNC(=N)N)C(N)=O [eIFTerminator1] (H-KKRYSREFLLGFGGSGMTVEEMDSWIKSWDQR-NH2) | 54 ± 9 |
| CC[C@H](C)[C@H](NC(=O)[C@H](Cc1c[nH]c2ccccc12)NC(=O)[C@H](CO)NC(=O)[C@H](CC(=O)O)NC(=O)[C@H](CCSC)NC(=O)[C@H](CCC(=O)O)NC(=O)[C@H](CCC(=O)O)NC(=O)[C@@H](NC(=O)[C@@H](NC(=O)[C@@H](N)CCSC)[C@@H](C)O)C(C)C)C(=O)N[C@@H](CCCCN)C(=O)N[C@@H](CO)C(=O)N[C@@H](Cc1c[nH]c2ccccc12)C(=O)N[C@@H](CC(=O)O)C(=O)N[C@@H](CCC(N)=O)C(=O)N[C@@H](CCCNC(=N)N)C(=O)NCC(=O)NCC(=O)N[C@@H](CO)C(=O)NCC(=O)N[C@@H](CCCCN)C(=O)N[C@@H](CCCCN)C(=O)N[C@@H](CCCNC(=N)N)C(=O)N[C@@H](Cc1ccc(O)cc1)C(=O)N[C@@H](CO)C(=O)N[C@@H](CCCNC(=N)N)C(=O)N[C@@H](CCC(=O)O)C(=O)N[C@@H](Cc1ccccc1)C(=O)N[C@@H](CC(C)C)C(=O)N[C@@H](CC(C)C)C(=O)NCC(=O)N[C@@H](Cc1ccccc1)C(N)=O [eIFTerminator2] (H-MTVEEMDSWIKSWDQRGGSGKKRYSREFLLGF-NH2) | 67.5 ± 7.4 |
| CC[C@H](C)[C@H](NC(=O)[C@H](Cc1c[nH]c2ccccc12)NC(=O)[C@H](CO)NC(=O)[C@H](CC(=O)O)NC(=O)[C@H](CCSC)NC(=O)[C@H](CCC(=O)O)NC(=O)[C@H](CCC(=O)O)NC(=O)[C@@H](NC(=O)[C@@H](NC(=O)[C@@H](N)CCSC)[C@@H](C)O)C(C)C)C(=O)N[C@@H](CCCCN)C(=O)N[C@@H](CO)C(=O)N[C@@H](Cc1c[nH]c2ccccc12)C(=O)N[C@@H](CC(=O)O)C(=O)N[C@@H](CCC(N)=O)C(=O)N[C@@H](CCCNC(=N)N)C(=O)NCC(=O)NCC(=O)N[C@@H](CO)C(=O)NCC(=O)NCC(=O)N[C@@H](CO)C(=O)NCC(=O)NCC(=O)N[C@@H](CO)C(=O)NCC(=O)N[C@@H](CCCCN)C(=O)N[C@@H](CCCCN)C(=O)N[C@@H](CCCNC(=N)N)C(=O)N[C@@H](Cc1ccc(O)cc1)C(=O)N[C@@H](CO)C(=O)N[C@@H](CCCNC(=N)N)C(=O)N[C@@H](CCC(=O)O)C(=O)N[C@@H](Cc1ccccc1)C(=O)N[C@@H](CC(C)C)C(=O)N[C@@H](CC(C)C)C(=O)NCC(=O)N[C@@H](Cc1ccccc1)C(N)=O [eIFTerminator4] (H-MTVEEMDSWIKSWDQRGGSGGSGGSGKKRYSREFLLGF-NH2) | 60.6 ± 8.5 |

Biological target: T2, His-eIF4E (UniProt P06730 1-217)
T2 construct: eukaryotic translation initiation factor 4E (eIF4E); Immobilised on the SPR chip; also called eukaryotic translation initiation factor 4E; source: recombinant
T2 sequence (P06730 whole entry): as the sequence (P06730 whole entry) above
Assay: SPR; His-eIF4E immobilised; dilution series of eIFTerminator with a fixed, saturating concentration of CBL (1 µM) as analyte; steady-state affinities, ternary complex
Settings: both partners purified

| Molecule | Kd [nM] |
| --- | --- |
| eIFTerminator1-CBL binary complex (complex) chain 1: KKRYSREFLLGFGGSGMTVEEMDSWIKSWDQM chain 2: PPGTVDKKMVEKCWKLMDKVVRLCQNPKLALKNSPPYILDLLPDTYQHLRTILSRYEGKMETLGENEYFRVFMENLMKKTKQTISLFKEGKERMYEENSQPRRNLTKLSLIFSHMLAELKGIFPSGLFQGDTFRITKADAAEFWRKAFGEKTIVPWKSFRQALHEVHPISSGLEAMALKSTIDLTCNDYISVFEFDIFTRLFQPWSSLLRNWNSLAVTHPGYMAFLTYDEVKARLQKFIHKPGSYIFRLSCTRLGQWAIGYVTADGNILQTIPHNKPLFQALIDGFREGFYLFPDGRNQNPDLTGLCEPTPQDHIKVTQEQYELYCEMGSTFQLCKICAENDKDVKIEPCGHLMCTSCLTSWQESEGQGCPFCRCEIKGTEPIVVDPFD | 77.8 |
| eIFTerminator2-CBL binary complex (complex) chain 1: KKRYSREFLLGFGGSGGSGGSGMTVEEMDSWIKSWDQM chain 2: PPGTVDKKMVEKCWKLMDKVVRLCQNPKLALKNSPPYILDLLPDTYQHLRTILSRYEGKMETLGENEYFRVFMENLMKKTKQTISLFKEGKERMYEENSQPRRNLTKLSLIFSHMLAELKGIFPSGLFQGDTFRITKADAAEFWRKAFGEKTIVPWKSFRQALHEVHPISSGLEAMALKSTIDLTCNDYISVFEFDIFTRLFQPWSSLLRNWNSLAVTHPGYMAFLTYDEVKARLQKFIHKPGSYIFRLSCTRLGQWAIGYVTADGNILQTIPHNKPLFQALIDGFREGFYLFPDGRNQNPDLTGLCEPTPQDHIKVTQEQYELYCEMGSTFQLCKICAENDKDVKIEPCGHLMCTSCLTSWQESEGQGCPFCRCEIKGTEPIVVDPFD | 60.7 |
| eIFTerminator3-CBL binary complex (complex) chain 1: MTVEEMDSWIKSWDQMGGSGKKRYSREFLLGF chain 2: PPGTVDKKMVEKCWKLMDKVVRLCQNPKLALKNSPPYILDLLPDTYQHLRTILSRYEGKMETLGENEYFRVFMENLMKKTKQTISLFKEGKERMYEENSQPRRNLTKLSLIFSHMLAELKGIFPSGLFQGDTFRITKADAAEFWRKAFGEKTIVPWKSFRQALHEVHPISSGLEAMALKSTIDLTCNDYISVFEFDIFTRLFQPWSSLLRNWNSLAVTHPGYMAFLTYDEVKARLQKFIHKPGSYIFRLSCTRLGQWAIGYVTADGNILQTIPHNKPLFQALIDGFREGFYLFPDGRNQNPDLTGLCEPTPQDHIKVTQEQYELYCEMGSTFQLCKICAENDKDVKIEPCGHLMCTSCLTSWQESEGQGCPFCRCEIKGTEPIVVDPFD | 81.8 |
| eIFTerminator4-CBL binary complex (complex) chain 1: MTVEEMDSWIKSWDQMGGSGGSGGSGKKRYSREFLLGF chain 2: PPGTVDKKMVEKCWKLMDKVVRLCQNPKLALKNSPPYILDLLPDTYQHLRTILSRYEGKMETLGENEYFRVFMENLMKKTKQTISLFKEGKERMYEENSQPRRNLTKLSLIFSHMLAELKGIFPSGLFQGDTFRITKADAAEFWRKAFGEKTIVPWKSFRQALHEVHPISSGLEAMALKSTIDLTCNDYISVFEFDIFTRLFQPWSSLLRNWNSLAVTHPGYMAFLTYDEVKARLQKFIHKPGSYIFRLSCTRLGQWAIGYVTADGNILQTIPHNKPLFQALIDGFREGFYLFPDGRNQNPDLTGLCEPTPQDHIKVTQEQYELYCEMGSTFQLCKICAENDKDVKIEPCGHLMCTSCLTSWQESEGQGCPFCRCEIKGTEPIVVDPFD | 43.8 |
